Test results reported in patent US12378211B2, “Carbonic anhydrase inhibitors and antibiotics against multidrug resistant bacteria” (Purdue Research Foundation, priority 2018, dated 2025).
Values after ≈ are worked out from the molar mass of the structure shown. Read-outs that look alike come from different tables or passages of the source.

Columns and labels:
[1] = system: Enterococcus faecalis-S613 HM-334; assay: MIC in presence of 4% human serum albumin; format: cell-based; settings: Enterococcus; TSB supplemented with 4% human serum albumin; read-out: MIC
Experimental: (§1) The minimum inhibitory concentrations (MICs) of CAIs were tested against vancomycin resistant Enterococcus faecalis—S613 HM 334 strain as per the guidelines provided by the Clinical and Laboratory Standards Institute (CLSI). The selected strain was streaked on Tryptic Soy Agar (TSA) plate and let grow for 24 hours at 37° C. Afterwards, a bacterial solution equivalent to 0.5 McFarland standard was prepared and diluted in tryptone soy broth (TSB) supplemented with 4% human serum albumin (HAS) to achieve a bacterial concentration of about 5×10^5 CFU/mL and seeded in 96-well well plates. Compounds and control drugs were added in the first row of the 96-well plates and serially diluted along the plates. Plates were then incubated aerobically at 37° C. for 18-20 hours. MICs reported in table (6) are the minimum concentration of the compounds/control drugs that could inhibit completely the visual growth of the bacteria.

[2] = system: Enterococcus faecium E417-HM-965; assay: MIC of CAIs in BHIB and TSB; format: cell-based; settings: Enterococcus faecium, read-out: MIC
Experimental: as §1, with “against clinical isolates of vancomycin sensitive and” for “against”, “resistant Enterococci strains” for “resistant Enterococcus faecalis—S613 HM 334 strain”, “selected strains of Enterococci were” for “selected strain was”, “(TSA) plates” for “(TSA) plate”, “(TSB) or brain heart infusion broth (BHIB)” for “(TSB) supplemented with 4% human serum albumin (HAS)”, “in Table 5” for “in table (6)”

[3] = system: Enterococcus fecalis Strain SF 24397 NR31970; assay: MIC of CAIs in BHIB and TSB; format: cell-based; settings: Enterococcus, read-out: MIC
Experimental: as §1, with “against clinical isolates of vancomycin sensitive and” for “against”, “resistant Enterococci strains” for “resistant Enterococcus faecalis—S613 HM 334 strain”, “selected strains of Enterococci were” for “selected strain was”, “(TSA) plates” for “(TSA) plate”, “(TSB) or brain heart infusion broth (BHIB)” for “(TSB) supplemented with 4% human serum albumin (HAS)”, “in Table 5” for “in table (6)”

[4] = system: Enterococcus faecium Patient #2-1-NR-31909; assay: MIC of CAIs in BHIB and TSB; format: cell-based; settings: Enterococcus faecium, read-out: MIC
Experimental: as §1, with “against clinical isolates of vancomycin sensitive and” for “against”, “resistant Enterococci strains” for “resistant Enterococcus faecalis—S613 HM 334 strain”, “selected strains of Enterococci were” for “selected strain was”, “(TSA) plates” for “(TSA) plate”, “(TSB) or brain heart infusion broth (BHIB)” for “(TSB) supplemented with 4% human serum albumin (HAS)”, “in Table 5” for “in table (6)”

[5] = system: Enterococcus faecalis—S613 HM-334; assay: MIC of CAIs in BHIB and TSB; format: cell-based; settings: Enterococcus, read-out: MIC
Experimental: The minimum inhibitory concentrations (MICs) of CAIs were tested against clinical isolates of vancomycin sensitive and vancomycin resistant Enterococci strains as per the guidelines provided by the Clinical and Laboratory Standards Institute (CLSI). The selected strains of Enterococci were streaked on Tryptic Soy Agar (TSA) plates and let grow for 24 hours at 37° C. Afterwards, a bacterial solution equivalent to 0.5 McFarland standard was prepared and diluted in tryptone soy broth (TSB) or brain heart infusion broth (BHIB) to achieve a bacterial concentration of about 5×10^5 CFU/mL and seeded in 96-well well plates. Compounds and control drugs were added in the first row of the 96-well plates and serially diluted along the plates. Plates were then incubated aerobically at 37° C. for 18-20 hours. MICs reported in Table 5 are the minimum concentration of the compounds/control drugs that could inhibit completely the visual growth of the bacteria. The MIC values of CAIs against the tested VRE strains were higher in BHIB than in TSB. This may be due to binding of these drugs to proteins. […] They inhibited the VRE strains at MIC values ranging from 1 to 4 μg/mL.

[6] = system: Mutant-5 of Enterococcus fecalis NR 31975; assay: microbe, parasite or virus in culture; format: cell-based; settings: Enterococcus
[7] = system: Mutant-4 of Enterococcus fecalis NR 31975; assay: microbe, parasite or virus in culture; format: cell-based; settings: Enterococcus
[8] = system: Mutant-3 of Enterococcus fecalis NR 31975; assay: microbe, parasite or virus in culture; format: cell-based; settings: Enterococcus
[9] = system: Mutant-11 of Enterococcus fecalis NR 31975; assay: microbe, parasite or virus in culture; format: cell-based; settings: Enterococcus
[10] = system: Mutant-7 of Enterococcus fecalis NR 31975; assay: microbe, parasite or virus in culture; format: cell-based; settings: Enterococcus
[11] = system: Enterococcus faecium E417-HM-965; assay: MIC, broth microdilution in TSB; format: cell-based; settings: Enterococcus faecium, E417HM965, TSB
Experimental: (§2) The minimum inhibitory concentrations (MICs) of the compounds and control drugs were determined using the broth microdilution method, according to guidelines outlined by the Clinical and Laboratory Standards Institute (CLSI). Enterococci strains were grown aerobically overnight on tryptone soya agar plates at 37° C., afterwards a bacterial solution equivalent to 0.5 McFarland standard was prepared and diluted in tryptone soy broth (TSB) to achieve a bacterial concentration of about 5×10^5 CFU/mL and seeded in 96-well well plates. Compounds and control drugs were added in the first row of the 96-well plates and serially diluted along the plates. Plates were then incubated aerobically at 37° C. for 18-20 hours. MICs reported in Table 1 are the minimum concentration of the compounds/control drugs that could inhibit completely the visual growth of the bacteria.

[12] = system: Enterococcus faecium Patient #2-1-NR-31909; assay: MIC, broth microdilution in TSB; format: cell-based; settings: Enterococcus faecium, TSB
Experimental: as §2

[13] = system: Mutant-6 of Enterococcus fecalis NR 31975; assay: microbe, parasite or virus in culture; format: cell-based; settings: Enterococcus
[14] = system: MRSA NRS 384 (MRSA USA300); assay: MIC against Staphylococci, broth microdilution; format: cell-based, Staphylococcus aureus; settings: Staphylococcus aureus; TSB; read-out: MIC
Experimental: as §2, with “Institute (CLSI) 1. Staphylococci” for “Institute (CLSI). Enterococci”, “Table 2” for “Table 1”

[15] = system: Mutant-8 of Enterococcus fecalis NR 31975; assay: microbe, parasite or virus in culture; format: cell-based; settings: Enterococcus
[16] = system: Mutant-15 of Enterococcus fecalis NR 31975; assay: microbe, parasite or virus in culture; format: cell-based; settings: Enterococcus
[17] = system: Mutant-12 of Enterococcus fecalis NR 31975; assay: microbe, parasite or virus in culture; format: cell-based; settings: Enterococcus
[18] = system: Staphylococcus epidermidis NRS 101; assay: MIC against Staphylococci, broth microdilution; format: cell-based; settings: Staphylococcus epidermidis, NRS101; TSB; read-out: MIC
Experimental: as §2, with “Institute (CLSI) 1. Staphylococci” for “Institute (CLSI). Enterococci”, “Table 2” for “Table 1”

[19] = system: Bacteroides dorei—CL02T12C06 HM-719; assay: MIC against human normal gut microbiota; format: cell-based; settings: Bacteroides; BHIS broth, anaerobic, 48 hours; read-out: MIC
Experimental: (§3) Three different bacterial strains were used in this experiment; Bifidobacterium (anaerobic Gram positive bacteria), Bacteroides (anaerobic Gram negative bacteria) and Lactobacillus (microaerophilic Gram positive bacteria). Bifidobacterium and Bacteroides were first grown for 48 hours at 37° C., anaerobically using brain heart infusion supplemented (BHIS) agar (Brain heart infusion agar supplemented with hemin, vitamin K and L-cysteine). Lactobacillus was cultivated on MRS agar and incubated in presence of 5% CO2 for 48 hours at 37° C. Each bacterium was suspended in phosphate buffered saline (PBS) to produce a suspension with optical density that matches 0.5 McFarland standard and diluted in brain heart infusion supplemented broth (for Bifidobacterium and Bacteroides) or in MRS broth (for Lactobacillus) to achieve bacterial concentration of approximately 5×10^5 CFU/ml. Bacteria were then seeded in 96-well plates containing serial dilutions of the compounds and incubated as mentioned previously for 48 hours.

[20] = system: Bifidobacterium breve—JCP7499 HIM 1120; assay: MIC against human normal gut microbiota; format: cell-based; settings: Bifidobacterium; BHIS broth, anaerobic, 48 hours; read-out: MIC
Experimental: as §3

[21] = system: Bifidobacterium longum subsp. Longum—44B HM 845; assay: MIC against human normal gut microbiota; format: cell-based; settings: Bifidobacterium longum; BHIS broth, anaerobic, 48 hours; read-out: MIC
Experimental: as §3

[22] = system: Lactobacillus gasseri EX336960VC03 HIM-400; assay: MIC against human normal gut microbiota; format: cell-based; settings: Lactobacillus gasseri; MRS broth, 5% CO2, 48 hours; read-out: MIC
Experimental: as §3

[23] = system: Bacteroides fragilis—CL07T00C01 HIM-709; assay: MIC against human normal gut microbiota; format: cell-based; settings: Bacteroides; BHIS broth, anaerobic, 48 hours; read-out: MIC
Experimental: as §3

[24] = system: Lactobacillus casei ATCC 334; assay: MIC against human normal gut microbiota; format: cell-based; settings: Lacticaseibacillus casei, ATCC334; MRS broth, 5% CO2, 48 hours; read-out: MIC
Experimental: as §3

[25] = system: Mutant-14 of Enterococcus fecalis NR 31975; assay: microbe, parasite or virus in culture; format: cell-based; settings: Enterococcus
[26] = system: Mutant-13 of Enterococcus fecalis NR 31975; assay: microbe, parasite or virus in culture; format: cell-based; settings: Enterococcus
[27] = system: Mutant-9 of Enterococcus fecalis NR 31975; assay: microbe, parasite or virus in culture; format: cell-based; settings: Enterococcus
[28] = system: Mutant-2 of Enterococcus fecalis NR 31975; assay: microbe, parasite or virus in culture; format: cell-based; settings: Enterococcus

Q: How did the MIC [1] turn out when `CCOc1ccc2nc(S(N)(=O)=O)sc2c1` [Ethoxzolamide] was run?
A: Its MIC is > 256 µg/mL.

Q: And the MIC ([2]; E417HM965, BHIB)?
A: The MIC was 16 µg/mL.

Q: What about the MIC ([2]; E417HM965, TSB, Table 5) of the same molecule?
A: The MIC was 2 µg/mL.

Q: And the MIC ([3]; BHIB)?
A: Its MIC is > 128 µg/mL.

Q: And the MIC ([3]; TSB, Table 5)?
A: The MIC was 2 µg/mL.

Q: And the MIC ([4]; BHIB)?
A: The MIC was 64 µg/mL.

Q: And the MIC ([4]; TSB, Table 5)?
A: The MIC was 2 µg/mL.

Q: And the MIC ([5]; BHIIB)?
A: Its MIC is > 128 µg/mL.

Q: What about the MIC ([5]; TSB, Table 5) of the same molecule?
A: Its MIC is 1 µg/mL.

Q: Which MIC [6] does the source give for `CCCC(=O)Nc1nnc(S(N)(=O)=O)s1` [CAI0013, N-(5-Sulfamoyl-1,3,4-thiadiazol-2-yl) butyramide] here?
A: The MIC was 16 µg/mL (≈ 63.9 µM).

Q: What about the MIC [7] of the same molecule?
A: The MIC was 16 µg/mL (≈ 63.9 µM).

Q: And the MIC [8]?
A: Its MIC is 16 µg/mL (≈ 63.9 µM).

Q: And the MIC [9]?
A: The MIC was 8 µg/mL (≈ 32 µM).

Q: What about the MIC [10] of the same molecule?
A: The MIC was 8 µg/mL (≈ 32 µM).

Q: What about the MIC ([11]; Table 1, read-out: MIC) of the same molecule?
A: Its MIC is 0.5 µg/mL (≈ 2 µM).

Q: What about the MIC ([11]; Table 7, read-out: MIC in TSB) of the same molecule?
A: The MIC was 0.5 µg/mL (≈ 2 µM).

Q: What about the MIC ([12]; Table 1, read-out: MIC) of the same molecule?
A: Its MIC is 0.5 µg/mL (≈ 2 µM).

Q: What about the MIC ([12]; Table 7, read-out: MIC in TSB) of the same molecule?
A: The MIC was 0.5 µg/mL (≈ 2 µM).

Q: What about the MIC [13] of the same molecule?
A: Its MIC is 8 µg/mL (≈ 32 µM).

Q: And the MIC [14]?
A: Its MIC is > 64 µg/mL.

Q: And the MIC [15]?
A: Its MIC is 16 µg/mL (≈ 63.9 µM).

Q: And the MIC [16]?
A: Its MIC is 16 µg/mL (≈ 63.9 µM).

Q: What about the MIC [17] of the same molecule?
A: The MIC was 8 µg/mL (≈ 32 µM).

Q: What about the MIC [18] of the same molecule?
A: Its MIC is > 64 µg/mL.

Q: And the MIC [19]?
A: The MIC was > 64 µg/mL.

Q: And the MIC [20]?
A: The MIC was > 64 µg/mL.

Q: And the MIC [21]?
A: Its MIC is > 64 µg/mL.

Q: And the MIC [22]?
A: Its MIC is > 64 µg/mL.

Q: What about the MIC [23] of the same molecule?
A: The MIC was > 64 µg/mL.

Q: And the MIC [24]?
A: Its MIC is > 64 µg/mL.

Q: What about the MIC [25] of the same molecule?
A: The MIC was 8 µg/mL (≈ 32 µM).

Q: And the MIC [26]?
A: Its MIC is 16 µg/mL (≈ 63.9 µM).

Q: And the MIC [27]?
A: Its MIC is 8 µg/mL (≈ 32 µM).

Q: And the MIC [28]?
A: Its MIC is 8 µg/mL (≈ 32 µM).
